Experimental data published in patent publication US11319324B2, “Pyrazolo-pyrrolo-pyrimidine-dione derivatives as P2X3 inhibitors” (Bayer Aktiengesellschaft, priority 2017, dated 2022).

Legend:
Type in all cases: cell-based
human P2X2/3 receptors = target: T1, human P2X2/3 receptors (Homo sapiens, UniProt P56373+Q9UBL9); assay: Intracellular calcium measurement, antagonist activity at human P2X2/3 receptors (hP2X23 1321N1), Fluo8; settings: for IC50: column 4); 1321N1 cells, human P2X2/3, Fluo8, agonist ATP at EC50; read-out: 4) hP2X2/3 IC50 [nM] (1321N1); for hP2X23/hP2X3* Selectivity (1321N1): ratio of column 4) hP2X2/3 to column 3) hP2X3, 1321N1
T1 construct: expressed in transfected cells; host or cells: human astrocytoma 1321N1 (1312N1 [sic])
T1 sequence (P56373 1-397): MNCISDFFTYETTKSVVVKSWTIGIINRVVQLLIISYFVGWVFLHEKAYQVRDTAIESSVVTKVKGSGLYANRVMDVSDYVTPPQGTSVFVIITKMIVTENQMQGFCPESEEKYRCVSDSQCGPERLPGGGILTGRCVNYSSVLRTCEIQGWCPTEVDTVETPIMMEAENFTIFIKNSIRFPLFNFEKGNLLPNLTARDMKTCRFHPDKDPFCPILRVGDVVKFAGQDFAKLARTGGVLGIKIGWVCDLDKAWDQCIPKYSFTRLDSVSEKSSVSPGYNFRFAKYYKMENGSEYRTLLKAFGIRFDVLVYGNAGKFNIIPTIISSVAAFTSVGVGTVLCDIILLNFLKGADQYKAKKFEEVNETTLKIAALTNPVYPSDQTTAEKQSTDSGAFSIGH
T1 sequence (Q9UBL9 1-471): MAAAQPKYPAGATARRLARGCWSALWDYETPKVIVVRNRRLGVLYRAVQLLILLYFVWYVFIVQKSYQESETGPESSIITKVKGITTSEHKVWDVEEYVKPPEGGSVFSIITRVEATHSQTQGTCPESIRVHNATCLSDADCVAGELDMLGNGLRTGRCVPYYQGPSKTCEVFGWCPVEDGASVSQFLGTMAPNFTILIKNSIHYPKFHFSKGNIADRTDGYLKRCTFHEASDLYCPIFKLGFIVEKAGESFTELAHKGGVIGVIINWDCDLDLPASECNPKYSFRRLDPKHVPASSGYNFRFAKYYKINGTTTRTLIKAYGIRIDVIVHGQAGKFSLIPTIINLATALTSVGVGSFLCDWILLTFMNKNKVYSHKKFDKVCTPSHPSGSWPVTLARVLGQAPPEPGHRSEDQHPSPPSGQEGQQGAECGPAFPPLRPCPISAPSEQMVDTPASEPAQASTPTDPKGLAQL
Method in brief: (§1)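 Antagonism was assessed by decrease of the Fluo8 calcium signal after ATP challenge, with ATP dosed at the EC50 of whichever receptor was tested. Stable 1321N1 astrocytoma lines expressed either human P2X3 or both P2X2 and P2X3, and were dye-loaded 60 min before a 10 min compound incubation.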

human P2X3 receptor [1] = target: T2, human P2X3 receptor (Homo sapiens, UniProt P56373); assay: Intracellular calcium measurement, antagonist activity at human P2X3 receptors (hP2X3 1321N1), Fluo8; set-up: expressed in transfected cells; host or cells: human astrocytoma 1321N1 (1312N1 [sic]); settings: column 3); 1321N1 cells, human P2X3, Fluo8, agonist ATP at EC50
T2 sequence (P56373 1-397): T1 sequence (P56373 1-397)
Method in brief: as §1

human P2X3 receptor [2] = target: T2, human P2X3 receptor; assay: Intracellular calcium measurement to assess antagonist activity at human P2X3 receptors (hP2X3 CHO), photina luminescence; set-up: expressed in transfected cells; host or cells: Chinese hamster ovary (CHO) cells; settings: column 2), CHO cells, agonist α,β-methylene-ATP at EC50
Method in brief: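 Antagonism read as lowered photina luminescence after agonist stimulation in recombinant hP2X3/photina CHO cells. Cells seeded one day earlier (30 °C) and reconstituted with 5 μg/ml coelenterazine in 2 mM Ca-tyrode buffer for 3 h at 37 °C before measurement.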

Row | Compound | IC50 (human P2X2/3 receptors) [nM] | hP2X23/hP2X3* Selectivity (1321N1) (human P2X2/3 receptors) | IC50 (human P2X3 receptor [1]) [nM] | IC50 (human P2X3 receptor [2]) [nM]
1 | CC(C)N1Cc2c(n(CC(=O)Nc3ccc(F)cn3)c3cc(C#N)nn3c2=O)C1=O [Example 146, 2-[2-cyano-5,8-dioxo-6-(propan-2-yl)-5,6,7,8-tetrahydro-4H-pyrazolo[1,5-a]pyrrolo[3,4-d]pyrimidin-4-yl]-N-(5-fluoropyridin-2-yl)acetamide] | 6950 | 56 | 124 | 97
2 | CCc1cc2n(CC(=O)Nc3ccc(F)cn3)c3c(c(=O)n2n1)CN(C1CCNC1)C3=O.Cl (racemic) [Example 236, 2-{2-ethyl-5,8-dioxo-6-[(±)-pyrrolidin-3-yl]-5,6,7,8-tetrahydro-4H-pyrazolo[1,5-a]pyrrolo[3,4-d]pyrimidin-4-yl}-N-(5-fluoropyridin-2-yl)acetamide hydrochloride (1:1)] | > 32000 | >25 | 1280 | 615
3 | COC[C@H](C)N1Cc2c(n(CC(=O)Nc3ccc(F)cn3)c3cc(C(=O)N(C)C4CC4)nn3c2=O)C1=O [Example 196] | 4150 | 277 | 15 | 10
4 | CC(C)N1Cc2c(n(CC(=O)Nc3ccc(F)cn3)c3cc(-c4ccncc4)nn3c2=O)C1=O [Example 149, 2-[5,8-dioxo-6-(propan-2-yl)-2-(pyridin-4-yl)-5,6,7,8-tetrahydro-4H-pyrazolo[1,5-a]pyrrolo[3,4-d]pyrimidin-4-yl]-N-(5-fluoropyridin-2-yl)acetamide] | 2110 | 169 | 13 | 11
5 | CCc1cc2n(CC(=O)Nc3ccc(F)cn3)c3c(c(=O)n2n1)CN(C(COC)COC)C3=O [Example 99] | 9100 | 607 | 15 | 21
6 | CC(C)N1Cc2c(n(CC(=O)Nc3ccc(F)cn3)c3cc(C4CC4)nn3c2=O)C1=O [Example 56] | 9950 | 54 | 185 | 73
7 | Cc1ccc(-c2cc3n(CC(=O)Nc4ccc(F)cn4)c4c(c(=O)n3n2)CN([C@@H]2CCOC2)C4=O)nc1 [Example 160, N-(5-fluoropyridin-2-yl)-2-[2-(5-methylpyridin-2-yl)-5,8-dioxo-6-[(3R)-oxolan-3-yl]-5,6,7,8-tetrahydro-4H-pyrazolo[1,5-a]pyrrolo[3,4-d]pyrimidin-4-yl]acetamide] | 2200 | 367 | 6 | 16
8 | CCc1cc2n(CC(=O)Nc3ccc(C)cn3)c3c(c(=O)n2n1)CN(CC1CCCO1)C3=O (stereo not shown) [Example 63] | 7400 | 20 | 370 | 355
9 | CC(C)N1Cc2c(n(CC(=O)Nc3ccc(F)cn3)c3cc(NCC4CC4)nn3c2=O)C1=O [Example 175] | 6950 | 190 | 37 | 73
10 | CC(C)N1Cc2c(n(CC(=O)Nc3ccc(F)cn3)c3cc(C(=O)NCC(F)F)nn3c2=O)C1=O [Example 184] | 3200 | 70 | 46 | 38
11 | CC(C)N1Cc2c(n(CC(=O)Nc3ccc(F)cn3)c3cc(C(=O)N(C)C)nn3c2=O)C1=O [Example 182, 4-{2-[(5-fluoropyridin-2-yl)amino]-2-oxoethyl}-N,N-dimethyl-5,8-dioxo-6-(propan-2-yl)-5,6,7,8-tetrahydro-4H-pyrazolo[1,5-a]pyrrolo[3,4-d]pyrimidine-2-carboxamide] | > 32000 | >194 | 165 | 109
12 | CCc1cc2n(CC(=O)Nc3ccc(F)cn3)c3c(c(=O)n2n1)CN(CC1CCOC1)C3=O (stereo not shown) [Example 74] | > 32000 | >73 | 437 | 570
13 | CC(C)N1Cc2c(n(CC(=O)Nc3ccc(F)cn3)c3cc(C(=O)N4CCC4)nn3c2=O)C1=O [Example 223, 2-[2-(azetidin-1-ylcarbonyl)-5,8-dioxo-6-(propan-2-yl)-5,6,7,8-tetrahydro-4H-pyrazolo[1,5-a]pyrrolo[3,4-d]pyrimidin-4-yl]-N-(5-fluoropyridin-2-yl)acetamide] | 8920 | 158 | 56 | 23
14 | COC[C@H](C)N1Cc2c(n(CC(=O)Nc3ccc(F)cn3)c3cc(NC4CCCC4)nn3c2=O)C1=O [Example 178] | 2200 | 917 | 2 | 14
15 | CCc1cc2n(CC(=O)Nc3ccc(F)cn3)c3c(c(=O)n2n1)CN(C[C@H]1CN(C(=O)OC(C)(C)C)CCO1)C3=O [Example 86, tert-butyl(2S)-2-{[2-ethyl-4-{2-[(5-fluoropyridin-2-yl)amino]-2-oxoethyl}-5,8-dioxo-5,8-dihydro-4H-pyrazolo[1,5-a]pyrrolo[3,4-d]pyrimidin-6(7H)-yl]methyl}morpholine-4-carboxylate] | 2350 | 17 | 140 | 70
16 | CCc1cc2n(CC(=O)Nc3ccc(F)cn3)c3c(c(=O)n2n1)CN(C1CCN(C)C1)C3=O (stereo not shown) [Example 253] | > 32000 | >40 | 793 | 493
17 | CCc1cc2n(CC(=O)Nc3ccc(F)cn3)c3c(c(=O)n2n1)CN(C1CCNC1)C3=O (single isomer, unassigned) [Example 278, 2-{2-ethyl-5,8-dioxo-6-[pyrrolidin-3-yl]-5,6,7,8-tetrahydro-4H-pyrazolo[1,5-a]pyrrolo[3,4-d]pyrimidin-4-yl}-N-(5-fluoropyridin-2-yl)acetamide] | > 32000 | >47 | 675 | 650
18 | CCc1cc2n(CC(=O)Nc3ccc(F)cn3)c3c(c(=O)n2n1)CN(C1CCN(C(=O)NC(C)C)C1)C3=O (racemic) [Example 274, (±)-3-[2-ethyl-4-{2-[(5-fluoropyridin-2-yl)amino]-2-oxoethyl}-5,8-dioxo-5,8-dihydro-4H-pyrazolo[1,5-a]pyrrolo[3,4-d]pyrimidin-6(7H)-yl]-N-(propan-2-yl)pyrrolidine-1-carboxamide] | > 32000 | >256 | 125 | 187
19 | CC(C)N1Cc2c(n(CC(=O)Nc3ccc(F)cn3)c3cc(N4CCOCC4)nn3c2=O)C1=O [Example 180, N-(5-fluoropyridin-2-yl)-2-[2-(morpholin-4-yl)-5,8-dioxo-6-(propan-2-yl)-5,6,7,8-tetrahydro-4H-pyrazolo[1,5-a]pyrrolo[3,4-d]pyrimidin-4-yl]acetamide] | > 32000 | >188 | 170 | 175
20 | CCc1cc2n(CC(=O)Nc3ccc(F)cn3)c3c(c(=O)n2n1)CN(C[C@@H]1CN(C(=O)OC(C)(C)C)CCO1)C3=O [Example 90, Tert-butyl(2R)-2-{[2-ethyl-4-{2-[(5-fluoropyridin-2-yl)amino]-2-oxoethyl}-5,8-dioxo-5,8-dihydro-4H-pyrazolo[1,5-a]pyrrolo[3,4-d]pyrimidin-6(7H)-yl]methyl}morpholine-4-carboxylate] | 3450 | 27 | 130 | 94
21 | COC[C@H](C)N1Cc2c(n(CC(=O)Nc3ccc(F)cn3)c3cc(C4CCC4)nn3c2=O)C1=O [Example 110] | 3050 | 254 | 12 | 7
22 | CCc1cc2n(CC(=O)Nc3ccc(F)cn3)c3c(c(=O)n2n1)CN(C1CCN(S(C)(=O)=O)C1)C3=O (stereo not shown) [Example 272] | > 32000 | >52 | 610 | 433
